Assay results from patent US20260193254A1, “2-OXOQUINAZOLINE CRYSTALLINE FORMS” (IDEAYA Biosciences, Inc., priority 2022, published 2026).
≈ marks a conversion by molar mass, not a printed value.

What was measured:
Assay type in all cases: physicochemical
[1] = Hygroscopicity: water sorption and desorption by dynamic vapor sorption (DVS); details: for form change after the DVS test: XRPD after DVS; for humidity at which water is absorbed again / water content restored (conversion back to the hydrate): DVS and variable humidity XRPD
Method: In some embodiments, the crystalline form described herein is further characterized by is further characterized by a dynamic vapor sorption (DVS) profile. In some embodiments, a DVS is recorded according to the method as described herein with a cycle of 40-0-95-0-40% RH at 25° C.
Water sorption and desorption behaviors of Form A, Form C, Form D, and Form T were investigated by DVS at 25° C. with a cycle of 40-0-95-0-40% RH. Dm/dt was 0.002. Minimum equilibration time was 60 min. Maximum equilibration time was 360 min. XRPD was measured after DVS test to determine potential form change.

[2] = Variable humidity and temperature XRPD experiments
[3] = Equilibrium solubility in FeSSIF and FaSSIF; details: for XRPD of solid after solubility test / final pH / Solubility / impurity in solubility sample: 24 hours; for Solubility / solubility at 24 h: target concentration 1 mg/mL, HPLC method 1 or 2 (footnote); for impurity in solubility sample: no unit printed for impurity (column head mg/mL); for solubility at 24 h: 37 °C, thermodynamic from solid
Method: (§1) Solid part and liquid part were separated by filtration. Solubility was measured by HPLC. Solid part (wet cake) was investigated by XRPD.

[4] = Variable humidity and temperature XRPD experiments; details: for temperature above which the form starts to lose water: based on DSC results; for dehydration product (form obtained on loss of water): low humidity or heating above the dehydration temperature
Method: Based on DVS and DSC results of Form C, Form C starts to loss water when humidity is below 30% or when temperature is higher than about 44° C. […] In order to determine identity of potential form changes after the dehydration and upon the solid-solid transition, variable humidity and variable temperature XRPD techniques were applied. XRPD patterns of the sample were measured online under 25° C./ambient environment (initial)-120° C./N2 protection-25° C./ambient environment-25° C./80% RH (40 min)-25° C./0% RH (15 h), and 25° C./ambient environment (initial)-250° C./N2 protection-25° C./ambient environment. […] Form L coverts back to Form C after exposure to 25° C./80% RH for 40 min.
Based on DVS and DSC results of Form D, Form D starts to loss water when humidity is below 10% or when temperature is higher than 46° C. In order to determine identity of the dehydration product, variable humidity and variable temperature XRPD techniques were applied. XRPD patterns of the sample were measured online with a temperature cycle of 25° C./ambient environment (initial)-130° C./N2 protection (10 min)-25° C./N2 protection-25° C./ambient environment (3h) and two water sorption and desorption cycles of 50% RH (initial)-90% RH (3h)-60% RH (2h)-40% RH (2h)-20% RH (3h)-10% RH (3h)-0% RH (6h)-10% RH (3h)-20% RH (3h)-50% RH at 25° C. […] (higher than dehydration temperature). Form S converts back to Form D after exposure to ambient condition for 3 h.
In order to investigate potential form change of Form A upon heating, variable temperature XRPD technique was applied. XRPD patterns of the sample were measured online with a temperature cycle of 25° C. (initial)-50° C./N2 protection-70° C./N2 protection-250° C./N2 protection-25° C./N2 protection-25° C./ambient condition (3h). […] Form A converts to Form U when temperature is 250° C., and Form U converts to Form T after cooling to 25° C.

[5] = Grinding simulation experiments - dry grinding
Method: About 20 mg of Form A, Form D, and Form T were ground manually with a mortar and a pestle for 5 min or 1 min. Potential from transition and degree of crystallinity were evaluated by XRPD.

[6] = Grinding simulation experiments - wet grinding (granulation)
Method: Water or ethanol was added drop wise to about 20 mg of Form A, Form D, or Form T until solid was wetted sufficiently. Vortex was applied between each addition. Samples were dried under ambient condition for 10 min. Potential form transition and degree of crystallinity were evaluated by XRPD.

[7] = Bulk stability of crystalline forms; details: for Purity, Bulk (HPLC): Solid state
From the text: (§2) Solids obtained after bulk stability study were characterized by XRPD and HPLC.

[8] = Bulk stability of crystalline forms; set-up: key: Color A: All No change of color; details: Solid state
From the text: as §2

[9] = Equilibrium solubility in SGF (pH 2.0), 0.1 N HCl (pH 1.2) and phosphate buffer (pH 8.0); details: solid from solubility study with Form A in 0.1 N HCl solution
Method: as §1

[10] = 25° C./92% RH, open container, 1 week
[11] = 25° C./92% RH, open container, 2 weeks
[12] = 40° C./75% RH, open container, 1 week
[13] = 40° C./75% RH, open container, 2 weeks
[14] = 60° C., tight container, 1 week
[15] = 60° C., tight container, 2 weeks

Nc1nc(=O)n(-c2ccccc2Cl)c2nc(C(F)(F)F)ccc12 [Form C, 4-Amino-1-(2-chlorophenyl)-7-(trifluoromethyl)pyrido[2,3-d]pyrimidin-2(1H)-one]
humidity below which the form starts to lose water ([1]; 25° C.): below 30 % RH | form change after the DVS test [1]: A mixture of Form L and Form C was obtained | XRPD (XRPD method 2) ([2]; VT1 25° C./60% RH (initial)): Form C | XRPD (XRPD method 2) ([2]; VT7 250° C./60% RH (10 min)): Solid state Form V | XRPD (XRPD method 2) ([2]; VT8 25° C./60% RH (final)): Solid state Form V | XRPD of solid after solubility test ([3]; FaSSIF, pH 6.5, 37° C.): Form C | final pH ([3]; FaSSIF, pH 6.5, 37° C.): 6.6 | Solubility ([3]; FaSSIF, pH 6.5, 37° C.): 60 µg/mL (≈ 176 µM) | impurity in solubility sample ([3]; FaSSIF, pH 6.5, 37° C.): no impurity | XRPD of solid after solubility test ([3]; FeSSIF, pH 5.0, 37° C.): Form C | final pH ([3]; FeSSIF, pH 5.0, 37° C.): 5.2 | Solubility ([3]; FeSSIF, pH 5.0, 37° C.): 170 µg/mL (≈ 499 µM) | impurity in solubility sample ([3]; FeSSIF, pH 5.0, 37° C.): no impurity | XRPD (XRPD method 2) ([4]; VT2 120° C./60% RH (10 min)): Form L | XRPD (XRPD method 2) ([4]; VT4 25° C./80% RH (40 min)): Form C | XRPD (XRPD method 2) ([4]; VT6 25° C./60% RH (initial)): Form C | temperature above which the form starts to lose water [4]: higher than 44 °C | dehydration product (form obtained on loss of water) [4]: Form L

Nc1nc(=O)n(-c2ccccc2Cl)c2nc(C(F)(F)F)ccc12 [Form D, 4-Amino-1-(2-chlorophenyl)-7-(trifluoromethyl)pyrido[2,3-d]pyrimidin-2(1H)-one]
XRPD after dry grinding ([5]; Dry grinding for 1 min): substantially amorphous | XRPD after dry grinding ([5]; Dry grinding for 5 min): substantially amorphous | tolerance to dry grinding ([5]; ground manually with mortar and pestle, 5 min or 1 min, XRPD): poor tolerance | XRPD after wet grinding ([6]; Ethanol): substantially amorphous | XRPD after wet grinding ([6]; Water): No form change | form change after granulation with water ([6]; wet grinding, XRPD): no form change | tolerance to granulation with ethanol or water ([6]; wet grinding, XRPD): poor tolerance | tolerance to granulation with water ([6]; wet grinding, XRPD): good tolerance | humidity at which water is absorbed again / water content restored (conversion back to the hydrate) ([1]; 25° C.): higher than 20 % RH | hygroscopicity ([1]; DVS at 25° C., cycle 40-0-95-0-40% RH): slightly hygroscopic | water uptake ([1]; DVS, from 40% to 95% RH, 25° C.): about 0.9% | form change after the DVS test [1]: No form change | XRPD (XRPD method 2) ([2]; VRH1 21° C./50% RH (initial)): Form D | XRPD (XRPD method 2) ([2]; VRH2 21° C./90% RH (3 h)): Form D | XRPD (XRPD method 2) ([2]; VRH3 21° C./60% RH (2 h)): Form D | XRPD (XRPD method 2) ([2]; VRH4 21° C./40% RH (2 h)): Form D | XRPD (XRPD method 2) ([2]; VRH5 21° C./20% RH (3 h), desorption): Form D | XRPD (XRPD method 2) ([2]; VRH6 21° C./10% RH (3 h), desorption): Form S | XRPD (XRPD method 2) ([2]; VRH7 21° C./0% RH (6 h)): Form S | XRPD (XRPD method 2) ([2]; VRH8 21° C./10% RH (3 h), after 0% RH): Form S | XRPD (XRPD method 2) ([2]; VRH9 21° C./20% RH (3 h), after 0% RH): Form S | XRPD (XRPD method 2) ([2]; VRH10 21° C./50% RH (final)): Form D | XRPD (XRPD method 2) ([2]; VT9 25° C./55% RH (initial)): Form D | XRPD (XRPD method 2) ([2]; VT10 130° C./55% RH (10 min)): Form S | XRPD (XRPD method 2) ([2]; VT11 25° C./N2 protection (10 min)): Form S | XRPD (XRPD method 2) ([2]; VT12 25° C./55% RH (3 h)): Form D | XRPD of solid after solubility test ([3]; FaSSIF, pH 6.5, 37° C.): Form D | final pH ([3]; FaSSIF, pH 6.5, 37° C.): 6.6 | Solubility ([3]; FaSSIF, pH 6.5, 37° C.): 90 µg/mL (≈ 264 µM) | impurity in solubility sample ([3]; FaSSIF, pH 6.5, 37° C.): no impurity | XRPD of solid after solubility test ([3]; FeSSIF, pH 5.0, 37° C.): Form D | final pH ([3]; FeSSIF, pH 5.0, 37° C.): 5.2 | Solubility ([3]; FeSSIF, pH 5.0, 37° C.): 210 µg/mL (≈ 616 µM) | impurity in solubility sample ([3]; FeSSIF, pH 5.0, 37° C.): no impurity | Purity, Bulk (HPLC) [7, 10]: 98.0% | Purity, Bulk (HPLC) [7, 11]: 98.0% | Purity, Bulk (HPLC) [7, 12]: 98.1% | Purity, Bulk (HPLC) [7, 13]: 98.2% | Purity, Bulk (HPLC) [7, 14]: 98.1% | Purity, Bulk (HPLC) [7, 15]: 97.8% | Initial purity ([7]; before stress, HPLC): 98.0% | chemical stability and physical stability (bulk stability) ([7]; stressed under 25° C./92 RH, 40% C/75% RH and 60° C., XRPD and HPLC): good chemical stability and physical stability | XRPD (XRPD method 2) ([4]; VT13 25° C./55% RH (final)): Form D | temperature above which the form starts to lose water [4]: higher than 46 °C | dehydration product (form obtained on loss of water) [4]: Form S | Color [8, 10]: A | Color [8, 11]: A | Color [8, 12]: A | Color [8, 13]: A | Color [8, 14]: A | Color [8, 15]: A

Nc1nc(=O)n(-c2ccccc2Cl)c2nc(C(F)(F)F)ccc12 [Form E, 4-Amino-1-(2-chlorophenyl)-7-(trifluoromethyl)pyrido[2,3-d]pyrimidin-2(1H)-one]
solubility at 24 h ([3]; pH 5, fessif, FeSSIF, pH 5.0, 37° C.): 140 µg/mL (≈ 411 µM) | solubility at 24 h ([3]; pH 6.5, fassif, FaSSIF, pH 6.5, 37° C.): 60 µg/mL (≈ 176 µM) | XRPD of solid after solubility test ([3]; FaSSIF, pH 6.5, 37° C.): Form E | final pH ([3]; FaSSIF, pH 6.5, 37° C.): 6.6 | XRPD of solid after solubility test ([3]; FeSSIF, pH 5.0, 37° C.): Form E | final pH ([3]; FeSSIF, pH 5.0, 37° C.): 5.2

Nc1nc(=O)n(-c2ccccc2Cl)c2nc(C(F)(F)F)ccc12 [Form F, 4-Amino-1-(2-chlorophenyl)-7-(trifluoromethyl)pyrido[2,3-d]pyrimidin-2(1H)-one]
XRPD of solid after solubility test ([3]; FaSSIF, pH 6.5, 37° C.): Form F | final pH ([3]; FaSSIF, pH 6.5, 37° C.): 6.6 | XRPD of solid after solubility test ([3]; FeSSIF, pH 5.0, 37° C.): Form F | final pH ([3]; FeSSIF, pH 5.0, 37° C.): 5.0 | Solubility ([3]; FeSSIF, pH 5.0, 37° C.): 240 µg/mL (≈ 704 µM)

Nc1nc(=O)n(-c2ccccc2Cl)c2nc(C(F)(F)F)ccc12 [Form L, 4-Amino-1-(2-chlorophenyl)-7-(trifluoromethyl)pyrido[2,3-d]pyrimidin-2(1H)-one]
humidity at which water is absorbed again / water content restored (conversion back to the hydrate) ([1]; 25° C.): ≥ 80 % RH | form after exposure to 25° C./80% RH for 40 min ([4]; variable humidity XRPD): Form C | form obtained on heating to 250° C. ([4]; variable temperature XRPD, N2 protection): solid state Form V

Nc1nc(=O)n(-c2ccccc2Cl)c2nc(C(F)(F)F)ccc12 [Form R, 4-Amino-1-(2-chlorophenyl)-7-(trifluoromethyl)pyrido[2,3-d]pyrimidin-2(1H)-one]
impurity from HPLC result [9]: about 68.5%

Nc1nc(=O)n(-c2ccccc2Cl)c2nc(C(F)(F)F)ccc12 [Form S, 4-Amino-1-(2-chlorophenyl)-7-(trifluoromethyl)pyrido[2,3-d]pyrimidin-2(1H)-one]
humidity at which water is absorbed again / water content restored (conversion back to the hydrate) ([1]; 25° C.): higher than 20 % RH | form after exposure to ambient condition for 3 h ([4]; XRPD, 25° C.): Form D

Nc1nc(=O)n(-c2ccccc2Cl)c2nc(C(F)(F)F)ccc12 [Form U, 4-Amino-1-(2-chlorophenyl)-7-(trifluoromethyl)pyrido[2,3-d]pyrimidin-2(1H)-one]
form after cooling to 25° C. ([4]; after heating to 250° C.): Form T
